Measured values as given in US4330529A, “Antibacterial composition” (Fujisawa Pharmaceutical Co., Ltd., priority 1979, dated 1982).
Like-named read-outs stand apart in the source and are kept apart here.

Assays:
[1] = test system: Serratia marcescens 1421-4; assay: microbe, parasite or virus in culture; assay type: cell-based; conditions: for FIC: in 1:1 mixture C
Description: (§1) Further, in order to observe the degree of synergistic antimicrobial activity, Fractional Inhibitory Concentration (FIC) values and FIC Index were calculated from the determined MIC values according to the following calculation method, respectively.
(§2) In the case that the combination ratio of a mixture of monosodium salt of 3-(N-acetyl-N-hydroxyamino)propylphosphonic acid and monosodium salt of nocardicin A is m:n (by weight), each of FIC values and FIC indexes was calculated according to the following equations. [formula]

[2] = test system: Serratia marcescens 1421-1; assay: microbe, parasite or virus in culture; assay type: cell-based; conditions: for FIC: in 1:1 mixture C
Description: as §1, §2

[3] = test system: Pseudomonas aeruginosa 1101-63; assay: microbe, parasite or virus in culture; assay type: cell-based; conditions: for FIC: in 1:1 mixture C
Description: as §1, §2

[4] = test system: Klebsiella pneumoniae 1391-1; assay: microbe, parasite or virus in culture; assay type: cell-based; conditions: for FIC: in 1:1 mixture C
Description: as §1, §2

[5] = test system: Serratia marcescens 1421-3; assay: microbe, parasite or virus in culture; assay type: cell-based; conditions: for FIC: in 1:1 mixture C
Description: as §1, §2

[6] = test system: Pseudomonas aeruginosa 1101-5; assay type: in vivo, mice (ICR-strain male); conditions: P. aeruginosa 1101-5; for FIC: in 1:1 mixture C, from ED50; for ED50: s.c. 1 h after i.p. inoculation, survival at one week
Description: (§3) ICR-strain male mice weighing 23-25 g (10 mice per one group) were used. A prescribed amount of the pathogenic bacteria suspended in 5% aqueous mucin suspension (0.5 ml.) was inoculated intraperitoneally into each mouse. One hour after the inoculation, the antibiotics as mentioned in the following table were administered subcutaneously, and then survival of the test mice was measured one week after the infection to determine ED50 value.
(§4) Incidentally, FIC values and FIC index in this in vivo test also calculated from the determined ED50 values according to the following calculation method.
(§5) On the basis of the fact that the combination ratio of a mixture of monosodium salt of 3-(N-acetyl-N- hydroxyamino)propylphosphonic acid and monosodium salt of nocardicin A is 1:1 (by weight), each of FIC values and FIC index was calculated according to the following equations.
(§6) FIC of monosodium salt of 3-(N-acetyl-N-hydroxyamino)propylphosphonic acid=1/2 C'ab/A'o
(§7) FIC of monosodium salt of nocardicin A=1/2 C'ab/B'o
(§8) FIC index=1/2 C'ab/A'o+1/2 C'ab/B'o

[7] = test system: Pseudomonas aeruginosa 1101-7; assay type: in vivo, mice (ICR-strain male); conditions: P. aeruginosa 1101-7; for FIC: in 1:1 mixture C, from ED50; for ED50: s.c. 1 h after i.p. inoculation, survival at one week
Description: as §3, §4, §5, §6, §7, §8

[8] = test system: Klebsiella pneumoniae 1391-3; assay: MIC and FIC, Nutrient broth (Test 1); assay type: cell-based; conditions: for FIC: in 1:1 mixture C
Description: as §1, §2

Escherichia coli 1341-27 = assay: MIC and FIC, Nutrient broth (Test 1); assay type: cell-based; conditions: for FIC: in 1:1 mixture C
Description: as §1, §2

[9] = test system: Klebsiella pneumoniae 1391-5; assay: MIC and FIC, Nutrient broth (Test 1); assay type: cell-based; conditions: for FIC: in 1:1 mixture C
Description: as §1, §2

Escherichia coli 1341-35 = assay: MIC and FIC, Nutrient broth (Test 1); assay type: cell-based; conditions: for FIC: in 1:1 mixture C
Description: as §1, §2

[10] = test system: Serratia marcescens 1421-5; assay: MIC and FIC, Nutrient broth (Test 1); assay type: cell-based; conditions: for FIC: in 1:1 mixture C
Description: as §1, §2

[11] = test system: Pseudomonas aeruginosa 1101-68; assay: MIC and FIC, Nutrient broth (Test 1); assay type: cell-based; conditions: for FIC: in 1:1 mixture C
Description: as §1, §2

[12] = test system: Klebsiella pneumoniae 1391-2; assay: MIC and FIC, Nutrient broth (Test 1); assay type: cell-based; conditions: for FIC: in 1:1 mixture C
Description: as §1, §2

[13] = test system: Pseudomonas aeruginosa 1101-67; assay: MIC and FIC, Nutrient broth (Test 1); assay type: cell-based; conditions: for FIC: in 1:1 mixture C
Description: as §1, §2

[14] = test system: Pseudomonas aeruginosa 1101-64; assay: MIC and FIC, Nutrient broth (Test 1); assay type: cell-based; conditions: for FIC: in 1:1 mixture C
Description: as §1, §2

[15] = test system: Pseudomonas aeruginosa 1101-66; assay: MIC and FIC, Nutrient broth (Test 1); assay type: cell-based; conditions: for FIC: in 1:1 mixture C
Description: as §1, §2

[16] = test system: Klebsiella pneumoniae NCTC 418; assay: MIC and FIC, Nutrient agar (Tests 2, 3); assay type: cell-based; conditions: NCTC418, K. pneumoniae NCTC 418, 20 h
Description: (§9) After the incubation was carried out at 37° C. for 20 hours, MIC values were determined.

[17] = test system: Proteus mirabilis 1432-75; assay: MIC and FIC, Nutrient agar (Tests 2, 3); assay type: cell-based
[18] = test system: Serratia marcescens 1421-4; assay: MIC and FIC, Nutrient agar (Tests 2, 3); assay type: cell-based; conditions: Serratia marcescens, 14214, 20 h
[19] = test system: Salmonella typhimurium 1406; assay: MIC and FIC, Nutrient agar (Tests 2, 3); assay type: cell-based; conditions: Salmonella enterica, 20 h
[20] = test system: Proteus vulgaris IAM-1025; assay: MIC and FIC, Nutrient agar (Test 2); assay type: cell-based; conditions: IAM1025, P. vulgaris IAM-1025, 20 h
Description: as §9
(§10) FIC values and FIC Index were calculated in substantially the same manner as described in Test 1.

[21] = test system: Salmonella enteritidis 1891; assay: MIC and FIC, Nutrient agar (Test 2); assay type: cell-based; conditions: Salmonella enterica; S. enteritidis 1891; 20 h
Description: as §9

[22] = test system: Shigella flexneri Ia EW-8; assay: MIC and FIC, Nutrient agar (Test 2); assay type: cell-based; conditions: IAEW8, S. flexneri Ia EW-8, 20 h
Description: as §9

Proteus morganii 1433-2 = assay: MIC and FIC, Nutrient agar (Tests 2, 3); assay type: cell-based; conditions: Morganella morganii, 14332; P. morganii 1433-2; 20 h
Description: as §9

[23] = test system: Enterobacter cloacae 1401-4; assay: MIC and FIC, Nutrient agar (Tests 2, 3); assay type: cell-based; conditions: Enterobacter cloacae, 14014, 20 h, E. cloacae 1401-4
[24] = test system: Staphylococcus epidermidis 1601-1; assay: MIC and FIC, Nutrient agar (Tests 2, 3); assay type: cell-based; conditions: 16011, S. epidermidis 1601-1, 20 h
Description: as §9

[25] = test system: Salmonella paratyphi A-1015; assay: MIC and FIC, Nutrient agar (Test 2); assay type: cell-based; conditions: Salmonella enterica; S. paratyphi A-1015; 20 h
Description: as §9, §10

[26] = test system: Enterobacter aerogenes 1402-10; assay: MIC and FIC, Nutrient agar (Tests 2, 3); assay type: cell-based; conditions: Klebsiella aerogenes, 140210; E. aerogenes 1402-10; 20 h; read-out: MIC
[27] = test system: Alcaligenes faecalis 1311-1; assay: MIC and FIC, Nutrient agar (Test 2); assay type: cell-based; conditions: 13111, A. faecalis 1311-1, 20 h
Description: as §9, §10

Compound: CC(=O)N(O)CCCP(=O)(O)O [A (Table 1), 3-(N-acetyl-N-hydroxyamino)propylphosphonic acid]
- FIC ([1]; S. marcescens 1421-4): < 0.031
- MIC ([1]; Serratia marcescens, 14214, 20 h): > 800 µg/mL
- FIC ([2]; S. marcescens 1421-1): < 0.008
- MIC ([2]; Serratia marcescens, 14211, 20 h): > 800 µg/mL
- FIC ([3]; P. aeruginosa 1101-63): 0.063
- MIC ([3]; Pseudomonas aeruginosa, 110163, 20 h): 800 µg/mL
- FIC ([4]; K. pneumoniae 1391-1): 0.125
- MIC ([4]; Klebsiella pneumoniae, 13911, 20 h): 400 µg/mL
- FIC ([5]; S. marcescens 1421-3): < 0.063
- MIC ([5]; Serratia marcescens, 14213, 20 h): > 800 µg/mL
- FIC [6]: < 0.018
- ED50 [6]: > 20 mg/mouse
- FIC [7]: < 0.063
- ED50 [7]: > 20 mg/mouse
- FIC ([8]; K. pneumoniae 1391-3): 0.250
- MIC ([8]; Klebsiella pneumoniae, 13913, 20 h): 800 µg/mL
- FIC (Escherichia coli 1341-27; E. coli 1341-27): 0.125
- MIC (Escherichia coli 1341-27; Escherichia coli, 134127, 20 h): 200 µg/mL
- FIC ([9]; K. pneumoniae 1391-5): 0.250
- MIC ([9]; Klebsiella pneumoniae, 13915, 20 h): 400 µg/mL
- FIC (Escherichia coli 1341-35; E. coli 1341-35): 0.250
- MIC (Escherichia coli 1341-35; Escherichia coli, 134135, 20 h): 100 µg/mL
- FIC ([10]; S. marcescens 1421-5): < 0.016
- MIC ([10]; Serratia marcescens, 14215, 20 h): > 800 µg/mL
- FIC ([11]; P. aeruginosa 1101-68): 0.031
- MIC ([11]; Pseudomonas aeruginosa, 110168, 20 h): 800 µg/mL
- FIC ([12]; K. pneumoniae 1391-2): < 0.250
- MIC ([12]; Klebsiella pneumoniae, 13912, 20 h): > 800 µg/mL
- FIC ([13]; P. aeruginosa 1101-67): 0.250
- MIC ([13]; Pseudomonas aeruginosa, 110167, 20 h): 200 µg/mL
- FIC ([14]; P. aeruginosa 1101-64): < 0.031
- MIC ([14]; Pseudomonas aeruginosa, 110164, 20 h): > 800 µg/mL
- FIC ([15]; P. aeruginosa 1101-66): 0.125
- MIC ([15]; Pseudomonas aeruginosa, 110166, 20 h): 200 µg/mL

Compound: N[C@H](CCOc1ccc(/C(=N/O)C(=O)N[C@H]2CN([C@@H](C(=O)O)c3ccc(O)cc3)C2=O)cc1)C(=O)O [B (Table 1), nocardicin A]
- FIC ([1]; S. marcescens 1421-4): 0.063
- MIC ([1]; Serratia marcescens, 14214, S. marcescens 1421-4, broth, 20 h, read-out: MIC): 400 µg/mL
- FIC ([2]; S. marcescens 1421-1): 0.063
- MIC ([2]; Serratia marcescens, 14211, S. marcescens 1421-1, 20 h, read-out: MIC): 100 µg/mL
- FIC ([3]; P. aeruginosa 1101-63): 0.125
- MIC ([3]; Pseudomonas aeruginosa, 110163, P. aeruginosa 1101-63, 20 h, read-out: MIC): 400 µg/mL
- FIC ([4]; K. pneumoniae 1391-1): 0.063
- MIC ([4]; Klebsiella pneumoniae, 13911, K. pneumoniae 1391-1, 20 h, read-out: MIC): 800 µg/mL
- FIC ([5]; S. marcescens 1421-3): 0.125
- MIC ([5]; Serratia marcescens, 14213, S. marcescens 1421-3, 20 h, read-out: MIC): 400 µg/mL
- MIC [16]: 200 µg/mL
- MIC ([17]; Proteus mirabilis, 143275, 20 h): 3.13 µg/mL
- MIC [18]: 25 µg/mL
- FIC [6]: 0.273
- ED50 [6]: 1.3 mg/mouse
- FIC [7]: 0.083
- ED50 [7]: 15.0 mg/mouse
- FIC ([8]; K. pneumoniae 1391-3): 0.250
- MIC ([8]; Klebsiella pneumoniae, 13913, K. pneumoniae 1391-3, 20 h, read-out: MIC): 800 µg/mL
- FIC (Escherichia coli 1341-27; E. coli 1341-27): 0.250
- MIC (Escherichia coli 1341-27; Escherichia coli, 134127, E. coli 1341-27, 20 h, read-out: MIC): 100 µg/mL
- FIC ([9]; K. pneumoniae 1391-5): 0.125
- MIC ([9]; Klebsiella pneumoniae, 13915, K. pneumoniae 1391-5, 20 h, read-out: MIC): 800 µg/mL
- FIC (Escherichia coli 1341-35; E. coli 1341-35): 0.250
- MIC (Escherichia coli 1341-35; Escherichia coli, 134135, E. coli 1341-35, 20 h, read-out: MIC): 100 µg/mL
- FIC ([10]; S. marcescens 1421-5): 0.063
- MIC ([10]; Serratia marcescens, 14215, S. marcescens 1421-5, 20 h, read-out: MIC): 200 µg/mL
- FIC ([11]; P. aeruginosa 1101-68): 0.250
- MIC ([11]; Pseudomonas aeruginosa, 110168, P. aeruginosa 1101-68, 20 h, read-out: MIC): 100 µg/mL
- FIC ([12]; K. pneumoniae 1391-2): 0.250
- MIC ([12]; Klebsiella pneumoniae, 13912, K. pneumoniae 1391-2, 20 h, read-out: MIC): 800 µg/mL
- FIC ([13]; P. aeruginosa 1101-67): 0.250
- MIC ([13]; Pseudomonas aeruginosa, 110167, P. aeruginosa 1101-67, 20 h, read-out: MIC): 200 µg/mL
- FIC ([14]; P. aeruginosa 1101-64): 0.125
- MIC ([14]; Pseudomonas aeruginosa, 110164, P. aeruginosa 1101-64, 20 h, read-out: MIC): 200 µg/mL
- FIC ([15]; P. aeruginosa 1101-66): 0.250
- MIC ([15]; Pseudomonas aeruginosa, 110166, P. aeruginosa 1101-66, 20 h, read-out: MIC): 100 µg/mL
- MIC ([19]; S. typhimurium 1406, read-out: MIC): 25 µg/mL

Compound: CC1(C)S[C@@H]2[C@H](NC(=O)[C@H](N)c3ccccc3)C(=O)N2[C@H]1C(=O)O [B (Table 2), ampicillin]
- MIC [20]: 0.78 µg/mL
- MIC [21]: 0.39 µg/mL
- MIC [22]: 0.78 µg/mL
- MIC [16]: 12.5 µg/mL
- MIC ([17]; Proteus mirabilis, 143275, P. mirabilis 1432-75, 20 h, read-out: MIC): 0.39 µg/mL
- MIC (Proteus morganii 1433-2): 25 µg/mL
- MIC [18]: 25 µg/mL
- MIC [23]: 100 µg/mL
- MIC [24]: 0.2 µg/mL
- MIC ([19]; TYPHIMURIUM): 0.39 µg/mL
- MIC [25]: 0.39 µg/mL
- MIC [26]: 200 µg/mL
- MIC [27]: 6.25 µg/mL
